One experiment concerns HEK293-SIE STAT3 WT. In words: drug sensitivity score (inhibition of STAT3 luciferase reporter); higher = stronger inhibition. As to conditions: 6 h; STAT3: WT; IL6 100 ng/ml. The method, then: (§1)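 HEK293 cells with a STAT3-inducible (SIE) luciferase reporter, stably expressing WT STAT3 (IL6 100 ng/ml) or Y640F STAT3 (no IL6), were incubated 6 h with drugs in 384-well plates (5-8 concentrations over a 10,000-fold range); luciferase was read with ONE-Glo. DSS is a normalised area under the dose-response curve; values are the mean of two experiments.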
(In a reporter assay the amount or activity of a reporter protein is the signal.)

The subject of a further experiment is HEK293-SIE STAT3 Y640F. Described as above. Particulars: 6 h; IL6 0 ng/ml. The method, then:
as §1

The next experiment deals with KAI3. In words: drug sensitivity score (viability inhibition); higher = more sensitive. Particulars: 72 h; IL2 2.5 ng/ml. How it is done: (§2)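 NK-cell leukemia/lymphoma cell lines (3,000 cells/well) were cultured with IL2 2.5 ng/ml in 384-well drug plates (5-8 concentrations over a 10,000-fold range) for 72 h at 37 C; viability was read with CellTiter-Glo. DSS is a normalised area under the dose-response curve; the experiment was repeated twice.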

In the next experiment the test system is YT. The experiment is described as above. Particulars: 72 h; IL2 2.5 ng/ml. The method, then:
as §2

The test system of the next experiment is KHYG-1. The description is as above. As to conditions: 72 h; IL2 2.5 ng/ml. The method, then: as §2
A further experiment relates to NK-YS. The description is as above. Particulars: 72 h; IL2 2.5 ng/ml. How it is done:
as §2

Another experiment has as its system NKL. The description is as above. As to conditions: 72 h; IL2 2.5 ng/ml. The method, then: as §2
For a further experiment, the system named is SNK6. Described as above. As to conditions: 72 h; IL2 2.5 ng/ml. The method, then:
as §2

Another experiment has as its system NK-92. The description is as above. Particulars: 72 h; IL2 2.5 ng/ml. The method, then: as §2

Each structure is given as a SMILES string.

The values that follow come from the supplement of paper PMC5722580.

As to `COc1cc(Nc2ncc(F)c(Nc3ccc4c(n3)NC(=O)C(C)(C)O4)n2)cc(OC)c1OC` [Tamatinib], the drug sensitivity score was determined as 8.6 DSS in the experiment with HEK293-SIE STAT3 WT; 0 DSS in the experiment on HEK293-SIE STAT3 Y640F; 10.5 DSS in the experiment with KAI3; 2.87 DSS with YT; 8.19 DSS in the experiment on KHYG-1; 2.57 DSS with NK-YS. Moreover, the drug sensitivity score turned out to be 7.75 DSS in the experiment with NKL, 6.98 DSS in the experiment with SNK6 and 5.27 DSS in the experiment on NK-92.

Regarding `CS(=O)(=O)N1CCN(Cc2cc3nc(-c4cccc5[nH]ncc45)nc(N4CCOCC4)c3s2)CC1` [Pictilisib], the drug sensitivity score with HEK293-SIE STAT3 WT was found to be 4.5 DSS; in the experiment with HEK293-SIE STAT3 Y640F, 5 DSS; with KAI3, 2.33 DSS; in the experiment on YT it was 5.04 DSS; in the experiment on KHYG-1, 3.56 DSS; in the experiment on NK-YS it was 6.48 DSS. Moreover, the results for the drug sensitivity score in the experiment with NKL, in the experiment with SNK6 and in the experiment with NK-92 were 6.67 DSS, 1.94 DSS and 7.68 DSS, respectively.

Take `N#CC[C@H](C1CCCC1)n1cc(-c2ncnc3[nH]ccc23)cn1` [Ruxolitinib]: the drug sensitivity score in the experiment on HEK293-SIE STAT3 WT came to 34.1 DSS; with HEK293-SIE STAT3 Y640F it was 13.2 DSS; with KAI3 it was 27.5 DSS; in the experiment with YT it was 15.8 DSS; in the experiment on KHYG-1 it was 30.5 DSS; with NK-YS, 19.5 DSS. The figures for the drug sensitivity score with NKL, in the experiment on SNK6 and in the experiment with NK-92 were 26.9 DSS, 22.2 DSS and 21.8 DSS, respectively.

As to `O=C(Cc1ccc(-c2ccc(OCCN3CCOCC3)cc2)cn1)NCc1ccccc1` [KX2-391], the drug sensitivity score is 0 DSS with HEK293-SIE STAT3 WT; 0 DSS with HEK293-SIE STAT3 Y640F; 22.4 DSS in the experiment with KAI3; 31.7 DSS in the experiment on YT; 31.6 DSS in the experiment with KHYG-1; 28.1 DSS in the experiment with NK-YS. Besides, the drug sensitivity score stood at 31.2 DSS in the experiment with NKL, 31.7 DSS in the experiment on SNK6 and 32.4 DSS with NK-92.

On to `CN(C)C[C@@H]1CCn2cc(c3ccccc32)C2=C(C(=O)NC2=O)c2cn(c3ccccc23)CCO1` [Ruboxistaurin], for which the drug sensitivity score in the experiment on HEK293-SIE STAT3 WT came out at 3.95 DSS; in the experiment with HEK293-SIE STAT3 Y640F it was 0.3 DSS; in the experiment on KAI3, 4.46 DSS; with YT it was 4.62 DSS; in the experiment on KHYG-1, 9.45 DSS; with NK-YS, 8.41 DSS. Moreover, the results for the drug sensitivity score with NKL, with SNK6 and with NK-92 were 7.79 DSS, 4.54 DSS and 4.64 DSS, respectively.

As to `C[C@]12O[C@H](C[C@]1(O)CO)n1c3ccccc3c3c4c(c5c6ccccc6n2c5c31)CNC4=O` [Lestaurtinib], the drug sensitivity score came out at 20.7 DSS with HEK293-SIE STAT3 WT; 10.8 DSS with HEK293-SIE STAT3 Y640F; 18.3 DSS with KAI3; 13.5 DSS in the experiment on YT; 22 DSS in the experiment on KHYG-1; 12.4 DSS in the experiment on NK-YS. In addition, the results for the drug sensitivity score in the experiment with NKL, in the experiment with SNK6 and with NK-92 were 14.6 DSS, 13 DSS and 14.3 DSS, respectively.

Take `C[C@@H]1CC(=O)c2c(ccc3c2C(=O)c2cccc(O)c2C3=O)C1` [STA-21]: the drug sensitivity score was determined as 10.3 DSS in the experiment with HEK293-SIE STAT3 WT; 11.5 DSS with HEK293-SIE STAT3 Y640F; 2.22 DSS with KAI3; 5.75 DSS with YT; 10 DSS in the experiment with KHYG-1; 9.69 DSS with NK-YS. Also, the drug sensitivity score in the experiment on NKL worked out at 11.5 DSS; in the experiment on SNK6, 2.24 DSS; in the experiment with NK-92, 4.92 DSS.

Take `Cc1[nH]c2ccccc2c1CCNCc1ccc(/C=C/C(=O)NO)cc1` [Panobinostat]: the drug sensitivity score stood at 3.75 DSS in the experiment on HEK293-SIE STAT3 WT; 4.7 DSS in the experiment on HEK293-SIE STAT3 Y640F; 21.9 DSS with KAI3; 18.8 DSS with YT; 23.1 DSS in the experiment on KHYG-1; 23 DSS in the experiment on NK-YS. The drug sensitivity score in the experiment on NKL stood at 24.2 DSS; in the experiment on SNK6 it was 21.9 DSS; with NK-92, 21.8 DSS.

For `COc1cc(Nc2ncc(F)c(Nc3ccc4c(n3)N(COP(=O)(O)O)C(=O)C(C)(C)O4)n2)cc(OC)c1OC` [Fostamatinib], the drug sensitivity score amounted to 9.75 DSS in the experiment on HEK293-SIE STAT3 WT; 2.93 DSS in the experiment with HEK293-SIE STAT3 Y640F; 7.41 DSS in the experiment with KAI3; 2.81 DSS in the experiment on YT; 1.22 DSS in the experiment on KHYG-1; 1.04 DSS in the experiment with NK-YS. In addition, the drug sensitivity score was determined as 4.15 DSS in the experiment with NKL, 3.04 DSS in the experiment with SNK6 and 3.43 DSS in the experiment on NK-92.

`C#Cc1cccc(Nc2ncnc3cc4c(cc23)OCCOCCOCCO4)c1` [Icotinib]: the drug sensitivity score in the experiment on HEK293-SIE STAT3 WT was 2.75 DSS; with HEK293-SIE STAT3 Y640F, 0 DSS; in the experiment on KAI3, 0.075 DSS; in the experiment on YT it was 0.21 DSS; in the experiment with KHYG-1 it was 0.998 DSS; with NK-YS, 0.207 DSS. Also, the drug sensitivity score with NKL was found to be 0 DSS; in the experiment on SNK6, 2.53 DSS; with NK-92 it was 2.41 DSS.

Take `Cc1c2oc3c(C)ccc(C(=O)N[C@@H]4C(=O)N[C@H](C(C)C)C(=O)N5CCC[C@H]5C(=O)N(C)CC(=O)N(C)[C@@H](C(C)C)C(=O)O[C@@H]4C)c3nc-2c(C(=O)N[C@@H]2C(=O)N[C@H](C(C)C)C(=O)N3CCC[C@H]3C(=O)N(C)CC(=O)N(C)[C@@H](C(C)C)C(=O)O[C@@H]2C)c(N)c1=O` [Dactinomycin]: the drug sensitivity score is 18.9 DSS with HEK293-SIE STAT3 WT; 18.4 DSS with HEK293-SIE STAT3 Y640F; 23.8 DSS in the experiment on KAI3; 35 DSS in the experiment on YT; 29.3 DSS in the experiment on KHYG-1; 38.2 DSS with NK-YS. For the same compound, the drug sensitivity score turned out to be 36.5 DSS in the experiment on NKL, 32.2 DSS with SNK6 and 16.5 DSS in the experiment with NK-92.

For the compound `N#C/C(=C\c1ccc(O)c(O)c1)C(=O)NCc1ccccc1` [AG490], the drug sensitivity score in the experiment with HEK293-SIE STAT3 WT turned out to be 1.18 DSS; in the experiment on HEK293-SIE STAT3 Y640F, 1.9 DSS; in the experiment on KAI3, 8.31 DSS; with YT, 8.84 DSS; in the experiment on KHYG-1, 8.13 DSS; in the experiment with NK-YS, 13.3 DSS. Moreover, the drug sensitivity score in the experiment with NKL is 10.3 DSS; in the experiment on SNK6 it was 10.2 DSS; in the experiment on NK-92 it was 9.21 DSS.

Take `CC(C)n1nc(-c2ccc3oc(N)nc3c2)c2c(N)ncnc21` [INK128]: the drug sensitivity score in the experiment with HEK293-SIE STAT3 WT was 13.8 DSS; in the experiment on HEK293-SIE STAT3 Y640F, 12 DSS; in the experiment on KAI3 it was 7.66 DSS; in the experiment on YT it was 11.9 DSS; in the experiment with KHYG-1, 7.21 DSS; in the experiment with NK-YS it was 11.8 DSS. For the same compound, the drug sensitivity score with NKL was 16.2 DSS; in the experiment with SNK6 it was 8.08 DSS; in the experiment with NK-92, 10.7 DSS.

With `C[C@@H]1CCN(C(=O)CC#N)C[C@@H]1N(C)c1ncnc2[nH]ccc12` [Tofacitinib], the drug sensitivity score stood at 26 DSS in the experiment on HEK293-SIE STAT3 WT; 9.05 DSS in the experiment on HEK293-SIE STAT3 Y640F; 17.4 DSS in the experiment on KAI3; 8.43 DSS in the experiment on YT; 23.4 DSS in the experiment on KHYG-1; 12.3 DSS in the experiment with NK-YS. Moreover, the drug sensitivity score in the experiment with NKL amounted to 19.8 DSS; with SNK6, 15.5 DSS; with NK-92, 13.2 DSS.

Take `CC(C)NC[C@@H](C(=O)N1CCN(c2ncnc3c2[C@H](C)C[C@H]3O)CC1)c1ccc(Cl)cc1` [GDC-0068]: the drug sensitivity score was determined as 4.1 DSS in the experiment on HEK293-SIE STAT3 WT; 0.85 DSS in the experiment on HEK293-SIE STAT3 Y640F; 0 DSS with KAI3; 0.319 DSS in the experiment on YT; 3.15 DSS in the experiment with KHYG-1; 1.41 DSS in the experiment on NK-YS. The drug sensitivity score is 1.24 DSS in the experiment on NKL, 1.47 DSS with SNK6 and 0.75 DSS with NK-92.

For the compound `CC(=O)c1c(C)c2cnc(Nc3ccc(N4CCNCC4)cn3)nc2n(C2CCCC2)c1=O` [Palbociclib], the drug sensitivity score with HEK293-SIE STAT3 WT was determined as 4.85 DSS; in the experiment on HEK293-SIE STAT3 Y640F, 2.8 DSS; with KAI3, 3.02 DSS; with YT it was 5.11 DSS; in the experiment with KHYG-1 it was 15.5 DSS; in the experiment on NK-YS it was 6.84 DSS. The drug sensitivity score with NKL was 9.52 DSS; in the experiment on SNK6, 0 DSS; with NK-92, 5.78 DSS.
